# Read-outs that look alike come from different tables or passages of the source.
# B1: Conjugate 81: "XMT-1535 was used instead of XMT-1519 and 2-(2-(2-(2-aminoethoxy)ethoxy)ethoxy)acetic acid was incorporated" instead of (3-(2-(2-aminoethoxy)ethoxy)propanoyl)-L-alanine (conjugate, chains of the INN, looked up)
# VH: QVQLVQSGAEVVKPGASVKMSCKASGYTFTGYNIHWVKQAPGQGLEWIGAIYPGNGDTSYKQKFRGRATLTADTSTSTVYMELSSLRSEDSAVYYCARGETARATFAYWGQGTLVTVSS
# VL: DIQMTQSPSSLSASVGDRVTITCSASQDIGNFLNWYQQKPGKTVKVLIYYTSSLYSGVPSRFSGSGSGTDYTLTISSLQPEDFATYYCQQYSKLPLTFGQGTKLELK
# modifications: drug-linker conjugate with PEG linker
# What was measured:
# [1] = system: CXCL10 produced by the SKOV3 cancer cell monocultures; test: CXCL10 ELISA of SKOV3 monocultures with conditioned media from immune cells (Example 36); type: cell-based, human; conditions: 24 hours
# Method: Conditioned media was prepared by culturing 1.5×10^6/mL PBMCs (two different donors), 1×10^6/mL primary monocytes (isolated from PBMCs from two different donors, as described in Example 29), or 1×10^6/mL THP1 cells in RPMI-1640 medium with 10% FBS and 1% penicillin/streptomycin for 24 hours at 37° C., 5% O2, in an incubator. The supernatants were collected and spun down at 2000 rpm for 10 min to remove any cells. SKOV3 cells were seeded in 96 well plates (30,000/well) and allowed to attach overnight in RPMI-1640 medium with 10% FBS and 1% penicillin/streptomycin. […] After incubation for 24 hours at 37° C., 5% O2 supernatants from the 96 well plates were analyzed for CXCL10 production using a human CXCL10 ELISA kit.
# [2] = system: Type III Interferons IFNλ1/IFNλ3 (IL29/IL28b); test: IFNλ1/IFNλ3 (IL29/IL28b) production, STING knock out SKBR3/PBMC co-cultures (Example 42); type: cell-based, human
# Method: (§1) Type III IFN induction: Co-cultures of SKBR3 cells and PBMCs were setup as described above to analyze the induction of Type III Interferons in supernatants 24 hours post treatment using a human IL29/IL28b ELISA kit.
# [3] = system: SKBR3 NucRed cells; test: Cancer cell killing activity in SKBR3 NucRed/PBMC or primary human monocyte co-cultures (Example 33); type: cell-based
# Method: 20,000 cells (per well) SKBR3 NucRed cells were seeded in 96-well tissue culture plates and allowed to attach 6 hours in 50 μL of RPMI-1640 medium with 10% FBS and 1% penicillin/streptomycin.
# [4] = system: OVCAR3-NucRed cancer cells; test: OVCAR3-NucRed co-cultures with PBMCs, enriched monocytes or CD16-depleted monocytes (Example 31); type: cell-based, human; conditions: 20 and 4 nM payload
# From the text: Frozen human PBMCs (1×10^8) were thawed and aliquoted into three tubes: one aliquot was subjected to human monocyte enrichment [StemCell Technologies] (“CD16 depleted monocytes”), one aliquot was subjected to human monocyte enrichment without CD16 depletion [StemCell Technologies] (“enriched monocytes”), and one aliquot was not subjected to enrichment (“PBMCs”). For flow cytometry, cells (50,000) from each group were transferred to a U-bottom 96-well plate in 4-replicates, washed with PBS and stained with live/dead fixable Aqua dead cell staining dye (Molecular Probes) followed by staining with fluorophore conjugated target specific (triplicates) or isotype control antibodies (Pacific Blue anti-human CD14, FITC anti-human CD3, APC/Cy7 CD16, PE anti-human CD32, PE/Cy7 anti-human CD64). Cells were fixed and surface expression of the proteins of interest was determined by flow cytometry analysis on a MACSQuant flow cytometer. Data analysis was performed by FlowJo software. Table 3 provides the frequency (% of single/live cells)) of CD14−/CD16+, CD14+/CD16+, CD14−/CD32+, CD14+/CD32+, CD14−/CD64+, CD14+/CD64+, and CD14−/CD3+ cells in PBMCs, enriched monocytes, and CD16-depleted monocyte populations
# OVCAR3-NucRed cells (generated as described in Example 28) were seeded (15,000/well) in 96-well CellBind surface tissue culture plates (Corning) and allowed to attach for 6 hours in RPMI-1640 medium with 10% FBS and 1% penicillin/streptomycin. Culture medium was replaced with fresh media (50 μL). […] PBMCs, enriched monocytes, and CD16-depleted monocytes were prepared as described in Example 29. Live PBMCs (30,000/well), enriched monocytes (20,000/well), and CD16-depleted monocytes (20,000/well) were then added to the wells in culture medium (50 μL) and the plate was placed in an IncuCyte© live cell imaging instrument in an incubator (37° C., 5% 02) and scanned every 4 hours over 2 days. The number of red objects (cancer cells) were quantified using the IncuCyte© Zoom software. Red object confluency in each well was normalized to its own T=0 time point red object confluency.
# [5] = system: THP1-Dual cells cultured on Her2 recombinant protein coated plates; test: THP1 luciferase reporter cells on Her2 protein coated plates (Example 27B); type: cell-based; conditions: Homo sapiens
# Method: The wells were then washed 1× with PBS-T and blocked by incubation with BSA (3% in PBS-T) for 1 hour at room temperature. […] THP1-dual reporter cells (50,000) were added into each well and incubated for 20 hours at 37° C. in a humidified atmosphere of 5% CO2. Cell culture supernatants (20 μl) from each incubated sample was added to resuspended QUANTI-Luc (50 μl) and the luminescent signal was measured immediately using a SpectraMax M5 plate reader (Molecular Devices). The EC50 value was determined from the dose response curve.
# [6] = system: STING wild type (sgNT-2) SKBR3 cells; test: PBMC killing assay, STING wild type SKBR3 NucRed cells (Examples 30, 30A); type: cell-based, human; conditions: 100, 25, 5 and 1 nM payload
# [7] = system: IL29/IL28b induction (IFNλ1/λ3); test: Type III IFN induction, human IL29/IL28b ELISA, SKBR3/PBMC co-cultures (Example 33); type: cell-based; conditions: SK-BR-3, SKBR3/PBMC co-culture, supernatants 24 hours post treatment
# Method: as §1
# [8] = system: THP1-Dual cells cultured on NaPi2b recombinant peptide coated plates; test: THP1 luciferase reporter cells on NaPi2b peptide coated plates (Example 27A); type: cell-based; conditions: Homo sapiens, 20 h
# Method: Human NaPi2b-derived peptide ([sequence]) was coated onto the surface of each well of a 96-well plate by incubation with the peptide (1p g/mL in PBS), overnight at 4° C. The wells were then washed 1× with PBS-T and blocked by incubation with BSA (3% in PBS-T) for 1 hour at room temperature. […] THP1-dual reporter cells (50,000) were added into each well and incubated for 20 hours at 37° C. in a humidified atmosphere of 5% CO2. Cell culture supernatants (20 μl) from each incubated sample was added to resuspended QUANTI-Luc (50 μl) and the luminescent signal was measured immediately using a SpectraMax M5 plate reader (Molecular Devices). The EC50 value was determined from the dose response curve.
# [9] = system: CXCL10 induction; test: CXCL10 induction in SKBR3 cancer cell/PBMC and monocyte co-cultures (Example 33); type: cell-based; conditions: Homo sapiens
# [10] = system: STING pathway in THP1-Dual cells co-cultured with OVCAR3 cancer cells; test: Cancer cell/THP1-IRF3-Luciferase reporter cell co-culture assay, OVCAR3 (Example 26A); type: cell-based; conditions: Homo sapiens, OVCAR-3, 20 h
# Method: Induction of STING pathway in immune cells: The induction of STING pathway in immune cells by NaPi2b-targeted STING ADC was evaluated by a cancer cell/THP1-IRF3-Luciferase reporter cell co-culture assay. OVCAR3 human ovarian carcinoma cells were seeded in 96-well CellBind surface tissue culture plates (15,000/well) and allowed to attach for 6 hours in RPMI-1640 medium with 10% FBS and 1% penicillin/streptomycin. […] THP1-dual reporter cells (30,000) were then added to each well and the incubation continued for 20 hours at 37° C. in a humidified atmosphere of 5% CO2. Cell culture supernatants (20 μl) from each incubated sample was added to resuspended QUANTI-Luc (50 l) and the luminescent signal was measured immediately using a SpectraMax M5 plate reader (Molecular Devices). The EC50 value was determined from the dose response curve.
# [11] = system: Type III Interferons IFNλ1/IFNλ3 (IL29/IL28b); test: IFNλ1/IFNλ3 (IL29/IL28b) production, STING wild type SKBR3/PBMC co-cultures (Example 42); type: cell-based, human
# Method: as §1
# [12] = system: STING pathway in THP1-Dual cells co-cultured with SKBR3 cancer cells; test: Cancer cell/THP1-IRF3-Luciferase reporter cell co-culture assay, SKBR3 (Example 26B); type: cell-based; conditions: Homo sapiens, SK-BR-3
# [13] = system: STING pathway in THP1-Dual cells co-cultured with SKOV3 cancer cells; test: Cancer cell/THP1-IRF3-Luciferase reporter cell co-culture assay, SKOV3 (Example 34); type: cell-based; conditions: Homo sapiens, SK-OV-3, 20 h
# Method: The induction of STING pathway in immune cells by Her2-targeted STING ADC was evaluated by a cancer cell/THP1-IRF3-Luciferase reporter cell co-culture assay. SKOV3 human ovarian adenocarcinoma cells were seeded in 96-well CellBind surface tissue culture plates (20,000/well) and allowed to attach for 6 hours in McCoy's 5a medium with 10% FBS and 1% penicillin/streptomycin. […] 50,000 THP1-dual reporter cells were then added to each well and the incubation continued for 20 hours at 37° C. in a humidified atmosphere of 5% CO2. Cell culture supernatants (20 μL) from each incubated sample was added to resuspended QUANTI-Luc (50 μL) and the luminescent signal for IRF3 was measured immediately using a SpectraMax M5 plate reader (Molecular Devices). The EC50 value was determined from the dose response curve.
# [14] = system: CXCL10 induction; test: CXCL10 induction in Calu3 cancer cell/PBMC co-cultures (Example 35); type: cell-based; conditions: Homo sapiens, Calu-3, read-out: EC50 - PBMC (CXCL10 induction)
# Method: CXCL10 induction: Calu3 human lung adenocarcinoma cells were seeded in 96-well tissue culture plates and allowed to attach overnight at 37° C., 5% CO2 in 100 μL of EMEM medium with 10% FBS and 1% penicillin/streptomycin. Culture medium was replaced with fresh media (100 μL).
# [15] = system: SKOV3 human ovarian cancer cells; test: SKOV3 xenograft, Fc mutant HER2 ADCs (Example 54); type: in vivo, mouse; conditions: iv day 1, n=10: Conjugate 8j 2.71/0.10, diABZI IV STING agonist 0/5 mg/kg
# Method: Tumors were measured twice weekly using digital calipers and tumor volumes were calculated using the formula: tumor volume (mm^3)=(width^2×length)/2. Body weights were recorded daily for the first week and twice weekly thereafter. Animals remained on study until individual tumor volume reached ≥1000 mm^3≥1500 mm^3 or as indicated. Percent change in body weight was calculated using the formula: body weight change (%)=((weight^study day X−weight^study day 1)/weight^study day 1)*100. Tumor volumes are reported as mean±standard error of the mean (SEM). Tumor growth inhibition (% TGI) was defined as the percent difference in mean tumor volumes (MTVs) between treated and control groups. Tumor size was measured throughout each efficacy study to determine tumor growth inhibition (TGI). Percent tumor regression was calculated using the formula: % regression=(1−(mean tumor volume^final)/(mean tumor volume^day 1))*100. A partial response (PR) is defined as a tumor volume of 50% or less for day 1 volume for three consecutive measurements and equal to or greater than 13.5 mm^3 for at least one of these three measurements. A complete response (CR) is defined as a tumor volume less than 13.5 mm^3 for three consecutive measurements. A tumor-free survivor (TFS) is classified as having a CR at the end of study. […]
# [16] = system: OVCAR3-NucRed cells; test: OVCAR3-NucRed/PBMC co-culture killing assay (Example 28B); type: cell-based, human
# Method: OVCAR3 human ovarian carcinoma cells stably expressing nuclear restricted mKate fluorescent red protein were generated by transduction with IncuCyte© NucLight Red Lentivirus reagent. Stably transduced cells (designated as OVCAR3-NucRed cells) selected in puromycin-containing media (2 μg/mL) for two days, were seeded in 96-well tissue culture plates (8,000/well) and allowed to attach overnight in RPMI-1640 medium with 10% FBS and 1% penicillin/streptomycin. Culture medium was replaced with fresh media (50 μL). […] Frozen human peripheral blood mononuclear cells (PBMCs) were thawed according to the supplier's instructions and were added to each well (40,000 PBMCs in 50 μL media) and the plate was placed in an IncuCyte© live cell imaging instrument in an incubator (37° C., 5% 02) and scanned every 4 hours over 2 days. The number of red objects (cancer cells) were quantified using the IncuCyte© Zoom software. Red object confluency in each well was normalized to its own T=0 time point red object confluency.
# OVCAR3-NucRed cells were seeded in 96-well tissue culture plates (20,000/well) and allowed to attach 6 hours in RPMI-1640 medium with 10% FBS and 1% penicillin/streptomycin. Culture medium was replaced with fresh media (50 μL). […] The number of red objects (cancer cells) were quantified using the IncuCyte© Zoom software. […]
molecule,measurement,setting,value
CCn1nc(C)cc1C(=O)Nc1nc2cc(C(N)=O)cc(OC)c2n1C/C=C/Cn1c(NC(=O)c2cc(C)nn2CC)nc2cc(C(N)=O)cc(OCCCO)c21 [Compound 1],O.D. 450 + 100 nM Compound 1 (CXCL10),[1]; Conditioned Media: Monocyte (Donor1),1.62 +/− 0.050 O.D. 450
same,O.D. 450 + 100 nM Compound 1 (CXCL10),[1]; Conditioned Media: Monocyte (Donor2),0.97 +/− 0.142 O.D. 450
same,O.D. 450 + 100 nM Compound 1 (CXCL10),[1]; Conditioned Media: None,0.16 +/− 0.038 O.D. 450
same,O.D. 450 + 100 nM Compound 1 (CXCL10),[1]; Conditioned Media: PBMC (Donor1),2.22 +/− 0.084 O.D. 450
same,O.D. 450 + 100 nM Compound 1 (CXCL10),[1]; Conditioned Media: PBMC (Donor2),0.83 +/− 0.086 O.D. 450
same,O.D. 450 + 100 nM Compound 1 (CXCL10),[1]; Conditioned Media: THP1,0.18 +/− 0.043 O.D. 450
same,Bmax (IL29/IL28b production),[2]; STING knock out (sgRNA#3) SKBR3/PBMC,0 OD450
same,Bmax (IL29/IL28b production),[2]; STING knock out (sgRNA#4) SKBR3/PBMC,0 OD450
same,IC50,"[3]; SK-BR-3, read-out: IC50 - Monocyte (killing activity)",8.32 nM
same,IC50,"[3]; SK-BR-3, read-out: IC50 - PBMC (killing activity)",9.51 nM
same,killing of OVCAR3-NucRed cancer cells by CD16 depleted monocytes (FIG. 5C),[4],induced cancer cell killing
same,killing of OVCAR3-NucRed cancer cells by PBMCs (FIG. 5A),[4],only in enriched monocyte and CD16-depleted monocyte co-cultures
same,killing of OVCAR3-NucRed cancer cells by enriched monocytes (FIG. 5B),[4],induced cancer cell killing
same,EC50,[5],8.8 nM
same,killing of SKBR3 cells/PBMC co-cultures (FIG. 3A),[6],showed activity in STING wild type (sgNT-2) SKBR3 cells/PBMC co-cultures at 100 nM only
same,EC50,[7],28.3 nM
same,EC50,[8],5.18 nM
same,EC50,"[9]; Monocyte, read-out: EC50 - Monocyte (CXCL10 induction)",31.1 nM
same,EC50,"[9]; SK-BR-3, read-out: EC50 - PBMC (CXCL10 induction)",26.1 nM
same,EC50,[10],6.8 nM
same,EC50,"[11]; Homo sapiens, SK-BR-3, read-out: EC50 (IL29/IL28b production)",49.3 nM
same,Bmax (IL29/IL28b production),[11]; STING wild type SKBR3/PBMC,0.5 OD450
same,EC50,[12],7.4 nM
CCc1nc(C)oc1C(=O)Nc1nc2cc(C(N)=O)cnc2n1C/C=C/Cn1c(NC(=O)c2oc(C)nc2CC)nc2cc(C(N)=O)cc(OCCCO)c21 [Compound 30],EC50,[13],38.5 nM
same,EC50,[14],160 nM
diABZI IV STING agonist,PR (partial responses),[15],7
B1,lower payload concentration compared to Compound 1 for induction of cancer cell killing,[16],100 ×
same,"cancer cell killing by PBMCs (red object numbers, FIG. 1B)",[16]; 1-100 nM payload,robust induction of cancer cell killing

# From patent US12440576B2, “Antibody drug conjugates comprising sting agonists” (Mersana Therapeutics, Inc., priority 2020, dated 2025)
